# Measured values published in US8637496B2, “Compounds having a monogalactosyldiacylglycerol synthase inhibitory activity as herbicide or algaecide, herbicide and algaecide compositions” (Commissariat a l'Energie Atomique, priority 2007, dated 2014).
# pIC50: −log10 of the molar value. Structures can show the parent of a compound that is named as a salt.
# Target: T1, MGDG synthase in isolated spinach chloroplast envelope membranes (Spinacia oleracea, UniProt Q9SM44)
# T1 construct: envelope membranes purified from the lysate by sucrose centrifugation gradient; from tissue; host or cells: envelope membranes of chloroplasts from spinach leaves
# T1 sequence (Q9SM44 99-522): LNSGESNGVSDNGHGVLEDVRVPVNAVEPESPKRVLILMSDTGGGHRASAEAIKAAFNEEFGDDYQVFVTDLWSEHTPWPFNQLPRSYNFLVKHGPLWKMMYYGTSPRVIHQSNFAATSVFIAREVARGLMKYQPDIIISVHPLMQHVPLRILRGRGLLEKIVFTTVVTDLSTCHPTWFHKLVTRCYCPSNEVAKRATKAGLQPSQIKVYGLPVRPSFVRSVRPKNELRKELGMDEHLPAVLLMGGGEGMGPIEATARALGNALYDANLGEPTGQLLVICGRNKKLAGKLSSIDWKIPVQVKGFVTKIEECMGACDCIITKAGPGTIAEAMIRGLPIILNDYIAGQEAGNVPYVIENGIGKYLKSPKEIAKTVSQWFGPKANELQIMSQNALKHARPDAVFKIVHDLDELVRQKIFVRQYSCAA
# Test: MGDG synthase activity in envelope membrane fractions isolated from spinach chloroplasts
# Type: biochemical
# Conditions: Table 1, obtained in the same manner as FIG. 4; read-out: Inhibitory effect on MGDG synthesis in isolated spinach chloroplast envelope membranes
# Excerpt: All the operations have been carried out as described in the article by Maréchal, E. et al., J. Biol. Chem., 1995, 270, 5714-5722. Crude chloroplasts were obtained from 3-4 kg of spinach leaves and purified by isopycnic centrifugation using Percoll gradients. Purified intact chloroplasts have then been lysed in hypotonic medium and envelope membranes purified from the lysate by sucrose centrifugation gradient as described in the article by Douce, R. and Joyard, J., (1982) in Methods in Chloroplast Molecular Biology (Edelman, M., Hallick R and Chua N H eds), pp 239-256, Elsevier Science Publishers B.V. Amsterdam.
# MGDG synthase activity was assayed as described in the article by Maréchal et al. (1995).
row,SMILES,pIC50
1,"CC(C)C[C@@H](COC(=O)N1CCC(n2c(=O)[nH]c3ccccc32)CC1)N(Cc1ccccc1)C(=O)OC(C)(C)C [Compound 85, (S)-2-(benzyl(tert-butoxycarbonyl)amino)-4-methylpentyl 4-(2-oxo-2,3-dihydro-1H-benzo[d]imidazol-1-yl)piperidine-1-carboxylate]",5.00
2,"O=C(OCCCN(Cc1ccccc1)Cc1ccoc1)N1CCC(n2c(=O)[nH]c3ccccc32)CC1 [Compound 80, 3-(benzyl(furan-3-ylmethyl)amino)propyl 4-(2-oxo-2,3-dihydro-1H-benzo[d]imidazol-1-yl)piperidine-1-carboxylate]",4.30
3,"O=C(OCCCN(Cc1ccccc1)Cc1cccc(OCc2ccccc2)c1)N1CCC(n2c(=O)[nH]c3ccccc32)CC1 [Compound 84, 3-(benzyl(3-(benzyloxy)benzyl)amino)propyl 4-(2-oxo-2,3-dihydro-1H-benzo[d]imidazol-1-yl)piperidine-1-carboxylate]",4.35
4,"O=C(OCC(Cc1ccccc1)NCc1ccccc1)N1CCC(n2c(=O)[nH]c3ccccc32)CC1 (stereo not drawn) [Compound 88, 2-(benzylamino)-3-phenylpropyl 4-(2-oxo-2,3-dihydro-1H-benzo[d]imidazol-1-yl)piperidine-1-carboxylate]",4.22
5,"C[C@@H](CNC(=S)N1CCC(n2c(=O)[nH]c3ccccc32)CC1)N(Cc1ccccc1)Cc1ccccc1 [Compound 23, N—((S)-2-(dibenzylamino)propyl)-4-(1,2-dihydro-2-oxobenzo[d]imidazol-3-yl)piperidine-1-carbothioamide]",4.30
6,"C[C@@H](COC(=O)N1CCC(n2c(=O)[nH]c3ccccc32)CC1)N(Cc1ccccc1)Cc1ccc(Br)cc1 [Compound 41, (S)-2-(benzyl(4-bromobenzyl)amino)propyl 4-(2-oxo-2,3-dihydro-1H-benzo[d]imidazol-1-yl)piperidine-1-carboxylate hydrochloride]",4.30
7,"CN(CCOC(=O)N1CCC(n2c(=O)[nH]c3ccccc32)CC1)Cc1ccccc1 [Compound 9, 2-(N-benzyl-N-methylamino)ethyl 4-(1,2-dihydro-2-oxobenzo[d]imidazol-3-yl)piperidine-1-carboxylate]",3.30 to 4.00
8,"O=C(OCCCN(Cc1ccccc1)Cc1ccnc2ccccc12)N1CCC(n2c(=O)[nH]c3ccccc32)CC1 [Compound 71, 3-(benzyl(quinolin-4-ylmethyl)amino)propyl 4-(2-oxo-2,3-dihydro-1H-benzo[d]imidazol-1-yl)piperidine-1-carboxylate hydrochloride]",4.30
9,"O=C(OCC(c1ccccc1)c1ccccc1)N1CCC(n2c(=O)[nH]c3ccccc32)CC1 [Compound 18, 2,2-diphenylethyl 4-(1,2-dihydro-2-oxobenzo[d]imidazol-3-yl)piperidine-1-carboxylate]",4.30
10,"C[C@@H](COC(=O)N1CCC(n2c(=O)[nH]c3ccccc32)CC1)N(Cc1ccccc1)Cc1ccc(F)cc1 [Compound 51, (S)-2-(benzyl(4-fluorobenzyl)amino)propyl 4-(2-oxo-2,3-dihydro-1H-benzo[d]imidazol-1-yl)piperidine-1-carboxylate hydrochloride]",4.40
11,"Cn1c(CN(CCCOC(=O)N2CCC(n3c(=O)[nH]c4ccccc43)CC2)Cc2ccccc2)cc2ccccc21 [Compound 72, 3-(benzyl((1-methyl-1H-indol-2-yl)methyl)amino)propyl 4-(2-oxo-2,3-dihydro-1H-benzo[d]imidazol-1-yl)piperidine-1-carboxylate hydrochloride]",4.30
12,"O=C(OCCCN(Cc1ccccc1)Cc1cccc2ccccc12)N1CCC(n2c(=O)[nH]c3ccccc32)CC1 [Compound 70, 3-(benzyl(naphthalen-1-ylmethyl)amino)propyl 4-(2-oxo-2,3-dihydro-1H-benzo[d]imidazol-1-yl)piperidine-1-carboxylate hydrochloride]",4.22
13,"CC(C)(C)OC(=O)N(CCOC(=O)N1CCC(n2c(=O)[nH]c3ccccc32)CC1)Cc1ccccc1 [Compound 65, 2-(benzyl(tert-butoxycarbonyl)amino)ethyl 4-(2-oxo-2,3-dihydro-1H-benzo[d]imidazol-1-yl)piperidine-1-carboxylate]",4.92
14,"O=C(OCCN1C(=O)c2ccccc2C1=O)N1CCC(n2c(=O)[nH]c3ccccc32)CC1 [Compound 15, 2-(1,3-dioxoisoindolin-2-yl)ethyl 4-(1,2-dihydro-2-oxobenzo[d]imidazol-3-yl)piperidine-1-carboxylate]",4.35

# Continued, values first:
row,pIC50,SMILES
1,4.92,"C[C@@H](COC(=O)N1CCC(n2c(=O)[nH]c3ccccc32)CC1)N(Cc1ccccc1)Cc1cccc(OCc2ccccc2)c1 [Compound 60, (S)-2-(benzyl(3-(benzyloxy)benzyl)amino)propyl 4-(2-oxo-2,3-dihydro-1H-benzo[d]imidazol-1-yl)piperidine-1-carboxylate hydrochloride]"
2,4.60,"O=C(CCCN(Cc1ccccc1)Cc1ccccc1)N1CCC(n2c(=O)[nH]c3ccccc32)CC1 [Compound 24, 1-[1-(4-Dibenzylamino-butyryl)-piperidin-4-yl]-1,3-dihydro-benzoimidazol-2-one]"
3,5.10,"O=C(OCCN(Cc1ccccc1)Cc1c(F)cccc1F)N1CCC(n2c(=O)[nH]c3ccccc32)CC1 [Compound 78, 2-(benzyl(2,6-difluorobenzyl)amino)ethyl 4-(2-oxo-2,3-dihydro-1H-benzo[d]imidazol-1-yl)piperidine-1-carboxylate]"
4,4.82,"O=C(OCCCN(Cc1ccccc1)Cc1cccc(Oc2ccccc2)c1)N1CCC(n2c(=O)[nH]c3ccccc32)CC1 [Compound 73, 3-(benzyl(3-phenoxybenzyl)amino)propyl 4-(2-oxo-2,3-dihydro-1H-benzo[d]imidazol-1-yl)piperidine-1-carboxylate hydrochloride]"
5,4.82,"O=C(OCCN(Cc1ccccc1)Cc1ccc(Br)cc1)N1CCC(n2c(=O)[nH]c3ccccc32)CC1 [Compound 40, 2-(benzyl(4-bromobenzyl)amino)ethyl 4-(2-oxo-2,3-dihydro-1H-benzo[d]imidazol-1-yl)piperidine-1-carboxylate hydrochloride]"
6,4.40,"C[C@@H](COC(=O)N1CCC(n2c(=O)[nH]c3ccccc32)CC1)N(Cc1ccccc1)Cc1cccc(Oc2ccccc2)c1 [Compound 55, (S)-2-(benzyl(3-phenoxybenzyl)amino)propyl 4-(2-oxo-2,3-dihydro-1H-benzo[d]imidazol-1-yl)piperidine-1-carboxylate hydrochloride]"
7,4.60,"C[C@@H](COC(=O)N1CCC(n2c(=O)[nH]c3ccccc32)CC1)N(Cc1ccccc1)Cc1cccc2ccccc12 [Compound 62, (S)-2-(benzyl(naphthalen-1-ylmethyl)amino)propyl 4-(2-oxo-2,3-dihydro-1H-benzo[d]imidazol-1-yl)piperidine-1-carboxylate hydrochloride]"
8,5.10,"CC(C)[C@@H](COC(=O)N1CCC(n2c(=O)[nH]c3ccccc32)CC1)N(Cc1ccccc1)Cc1ccccc1 [Compound 29, (S)-2-(dibenzylamino)-3-methylbutyl 4-(1,2-dihydro-2-oxobenzo[d]imidazol-3-yl)piperidine-1-carboxylate]"
9,5.10,"O=C(OCCN(Cc1ccccc1)Cc1cccc(OCc2ccccc2)c1)N1CCC(n2c(=O)[nH]c3ccccc32)CC1 [Compound 81, 2-(benzyl(3-(benzyloxy)benzyl)amino)ethyl 4-(2-oxo-2,3-dihydro-1H-benzo[d]imidazol-1-yl)piperidine-1-carboxylate]"
10,4.82,"O=C(OCCCN(Cc1ccccc1)Cc1ccccn1)N1CCC(n2c(=O)[nH]c3ccccc32)CC1 [Compound 59, 3-(benzyl(pyridin-2-ylmethyl)amino)propyl 4-(2-oxo-2,3-dihydro-1H-benzo[d]imidazol-1-yl)piperidine-1-carboxylate hydrochloride]"
11,5.10,"O=C(OCCN(Cc1ccccc1)Cc1cccc(Oc2ccccc2)c1)N1CCC(n2c(=O)[nH]c3ccccc32)CC1 [Compound 49, 2-(benzyl(3-phenoxybenzyl)amino)ethyl 4-(2-oxo-2,3-dihydro-1H-benzo[d]imidazol-1-yl)piperidine-1-carboxylate hydrochloride]"
12,4.82,"COc1cccc(CN(CCOC(=O)N2CCC(n3c(=O)[nH]c4ccccc43)CC2)Cc2ccccc2)c1 [Compound 48, 2-(benzyl(3-methoxybenzyl)amino)ethyl 4-(2-oxo-2,3-dihydro-1H-benzo[d]imidazol-1-yl)piperidine-1-carboxylate hydrochloride]"
13,4.82,"O=C(OCCCN(Cc1ccccc1)Cc1ccc([N+](=O)[O-])cc1)N1CCC(n2c(=O)[nH]c3ccccc32)CC1 [Compound 38, 3-(benzyl(4-nitrobenzyl)amino)propyl 4-(2-oxo-2,3-dihydro-1H-benzo[d]imidazol-1-yl)piperidine-1-carboxylate hydrochloride]"
